# In patent US8362203B2, “Non-natural peptides as models for the development of antibiotics” (priority 2009, dated 2013):
# How the values were obtained:
# [1] = tested on: E. coli helix 31 hairpin RNA (ECh31WT); experiment: Fluorescence titration of 5′-fluorescein-labeled helix 31 RNA with peptide; type: binding; conditions: 0.5 μM h31, 10 mM HEPES, 50 mM NaCl, 1 mM Na2EDTA, pH 7.5, 25° C.; hyperbolic curve fitting; read-out: apparent KD (fluorescence)
# Experimental: Fluorescence methods. Fluorescence measurements were taken on a RF-5301PC spectrofluorometer (Shimadzu) at 25° C. using a 1 cm path-length quartz fluorometer cell. The emission spectra were acquired by scanning between 500 and 600 nm with an excitation wavelength of 494 nm, slit widths of 3 nm for excitation and emission. The fluorescent titrations were performed by adding increasing concentrations of peptide (5-150 μM) to 350 μl of 0.5 μM 5′-fluorescein-labeled helix 31 RNA in HEPES buffer (10 mM HEPES, 50 mM NaCl, 1 mM Na2EDTA at pH 7.5) and incubated for 2 min for each concentration point followed by spectrum scanning. […] RNA-peptide binding was determined by quenching of the fluorescence intensity upon addition of peptide to the sample. The fluorescence intensity at 523 nm was converted to a fraction bound ratio and the dissociation constant (KD) of RNA-peptide binding was determined by curve fitting using the Kaleidagraph™ 3.0 program, as described in Chapter 3, Section 3.5.3
# Fluorescence titration assay. […] In this experiment, the fluorescence intensity decreased upon increases in the peptide concentration (FIG. 54); however, the percent change in the observed fluorescence intensity was fairly small (7%). […]
# The relatively poor fits may be a result of the fact that the fluorescence changes are quite small leading to greater error. […]
# [2] = tested on: E. coli helix 31 hairpin RNA (ECh31WT); experiment: Circular dichroism titration of helix 31 RNA with peptide; type: binding; conditions: 0.5 μM h31, 100 mM NaCl, 10 mM sodium phosphate, 0.1 mM Na2EDTA, pH 7; CD at 270 nm; read-out: apparent KD (circular dichroism)
# Experimental: Binding studies with CD. The titration was performed by adding increasing concentrations of peptide (10-80 μM) to 1 mL of 0.5 μM ECh31WT RNA in 10 mM sodium phoshate, 100 mM NaCl, 0.1 mM Na2EDTA at pH 7, and incubated for 2 min for each concentration point followed by spectrum scanning. Prior to titration, the RNA was renatured as described in Chapter 3, Section 3.2.2. RNA-peptide binding was determined by observing CD changes at 270 nm upon addition of peptide to the sample. The CD at 270 nm was converted to a fraction bound ratio and the dissociation constant (KD) of RNA-peptide binding was determined by curve fitting using the Kaleidagraph™ 3.0 program, as described in Chapter 3, Section 3.2.4.
# Circular dichroism studies. CD was employed to assess the conformational changes in helix 31 upon binding of the peptide. […] Conformational changes in helix 31 measured by circular dichroism spectroscopy was performed in 100 mM NaCl, 10 mM sodium phosphate, and 0.1 mM Na2EDTA at pH 7. […] The dissociation constant (KD) of RNA-peptide binding was determined by plotting Fr versus peptide concentration, and by curve fitting to Equation, Fr=[P]^n/([P]^n+KD^n) where [P] is the peptide concentration, n is the Hill coefficient, and KD is the apparent dissociation constant (FIG. 56B). […]
# [3] = tested on: E. coli h31 RNA (ECh31WT); experiment: SPR kinetic analysis of binding to immobilized biotinylated helix 31 RNA
# Experimental: SPR methods. All immobilization and subsequent binding studies were performed using a BIAcore 2000 instrument set at a temperature of 25° C. Standard dextran surface BIAcore sensorchips (Sensor chip CM5) were purchased from BIAcore. Standard desorb and sanitize routines were performed according to the BIAcore guidelines before docking a new CM5 sensor chip. All buffers were filtered through sterile 0.2 μm nylon membranes (Millipore™) under vacuum. Before derivatizing the flow cells with streptavidin, the CM5 sensor chip was pre-conditioned using three successive 10 μl injections of chip-preparation solution (10 mM NaOH, 500 mM NaCl) at 100 μl/min, followed by a normalization routine using BIAnormalizing solution (40% glycerol). Streptavidin derivatization was performed as described in Chapter 3. Prior to immobilization, the solution of biotinylated RNA in HBS-EP buffer (10 mM HEPES, 3 mM EDTA, 150 mM NaCl, 0.005% P20 at pH 7.4) was renatured by heating to 90° C. for 2 min followed by placing on ice. Flow cells were functionalized by injecting 30 μl of RNA at a time using the MANUAL INJECT command at a flow rate of 10 μl/min, until the desired immobilization level is reached. One of the flow cells was used to immobilize RNA (typically FC4), while another one adjacent to it (FC3) remained unmodified to serve as a blank-control for matrix effects. Levels of RNA captured were calculated by subtracting […] for each flow cell. After RNA immobilization, FC3 and FC4 were blocked with 100 μL of 1 mg/mL biotin at 5 μL/min.
# Peptide samples were prepared by serial dilutions from stock solutions into micro-centrifuge tubes. Dilutions are made by the same running buffer to avoid buffer mismatches. […]
# Biotinylated helix 31 RNA was immobilized onto a streptavidin-coated CM5 chip and differing concentrations of 17 (TYLPWPA)-GFP (“TYLPWPA” disclosed as SEQ ID NO: 2) were injected as the analyte. […] Finally, the apparent dissociation constants were determined under optimized conditions. […]
substance,measurement,setting,value
"TYLPWPA [peptide 17, 7-mer peptide selected by phage display against helix 31 RNA]",Kd,[1],27 ± 4 µM
same,Kd,[2],28 ± 10 µM
same,affinity for helix 31 RNA (in words),[3],moderate affinity
same,"KD (SPR, kd/ka)","[3]; Langmuir 1:1 model, same running buffer, pH 7.5, 50 μL/min",28 ± 1 µM
same,"SPR response due to binding, free peptide as analyte",[3]; peptide without GFP,negligible responses
